Data set [1] concerns the target T1, wild type C-South African (C-SA) HIV-1 protease (Human immunodeficiency virus type 1 group M subtype B, UniProt P12497, H557K/I503V/I581L/L507I/L577M/M524I/R529K/T500S).
T1 construct: Over-expression, extraction and purification of the C-SA protease and in vitro HIV-1 protease activity were reported in our earlier publications; made in house
As to the kind of experiment: in vitro HIV-1 protease inhibition (C-SA PR). The class given is biochemical, HIV-1 subtype C. An excerpt:
Over-expression, extraction and purification of the C-SA protease and in vitro HIV-1 protease activity were reported in our earlier publications. Genetic diversity among HIV-1 subtypes ranges between 25 and 35% at the nucleotide level and variation within subtypes vary from 15 to 20% [48, 49].
The HIV-1 subtype C PR that predominates in South Africa (C-SA PR) is defined as the consensus subtype C PR [51]. This C-SA PR contains eight polymorphic sites (T12S, I15V, L19I, M36I, R41K, H69K, L89M, and I93L) in relation to the wild-type subtype B HIV-1 PR [52].
The procedures followed were the same as reported before ^12,13.

For data set [2] the following is noted: 1H NMR, ref [19],[20], cited from earlier work. As to the method: It is therefore most likely that the lactam form is the active form in aqueous solution (also used for the IC50 experiments). The conformation for the amide side chain with the lowest energy was determined. In both cases this conformation involved intramolecular hydrogen bonding (O5 ...

Like-named read-outs stand apart in the source and are kept apart here. Peptide text beside a SMILES is read from it. * marks the point of attachment. X2 = O=C1OC2(C(=O)*)C3C4CC5C6C4C2C6C1(O)C53; X1 = O=C1NC2(N*)C3C4CC5C6C4C2C6C1(O)C53

In turn, `COC(=O)N[C@H](C(=O)N[C@@H](Cc1ccccc1)[C@@H](O)CN(Cc1ccc(-c2ccccn2)cc1)NC(=O)[C@@H](NC(=O)OC)C(C)(C)C)C(C)(C)C` [Atazanavir, reference compound] came in with an IC50 in data set [1] of 4 ± 0.71 nM.

In data set [1], `CC[C@H](C)[C@H](NC(=O)[C@H](C)NC(=O)[C@H](CCC(=O)O)NC(=O)C12OC(=O)C3(O)C4C5CC(C6C5C3C61)C42)C(N)=O` (some centres unmarked) [PCU-lactone-CO-EAI] showed an IC50 of 2600 nM.

Regarding `CC[C@H](C)[C@H](NC(=O)[C@@H](N)CO)C(=O)N[C@@H](C)C(=O)N[C@@H](CCC(=O)O)C(=O)NC12NC(=O)C3(O)C4C5CC(C6C5C3C61)C42` (some centres unmarked) [PCU-lactam-NH-EAIS] (H-SIAE-X1), the IC50 in data set [1] is roughly 78 nM.

Take `CC[C@H](C)[C@H](NC(=O)[C@H](C)NC(=O)[C@H](CCC(=O)O)NC(=O)C12OC(=O)C3(O)C4C5CC(C6C5C3C61)C42)C(=O)N[C@@H](CO)C(N)=O` (some centres unmarked) [PCU-lactone-CO-EAIS] (X2-EAIS-NH2): the IC50 in data set [1] was determined as 850 ± 180 nM. For the same molecule, the “IC50 relative to the corresponding cage lactam peptide” value in data set [1] (C-SA HIV-1 protease) is “eleven times weaker”.

As to `CC(=O)NC12NC(=O)C3(O)C4C5CC(C6C5C3C61)C42` (racemic) [PCU-lactam], in data set [2] ((CD3)2SO), the tautomer preference result is given as “major tautomer”.

Turning to `CC(=O)NC12N=C(O)C3(O)C4C5CC(C6C5C3C61)C42` (racemic) [PCU-lactim], in data set [2] (dioxane), the tautomer preference entry was “dominant”.

With `CC[C@H](C)[C@H](NC(=O)[C@H](C)NC(=O)C12OC(=O)C3(O)C4C5CC(C6C5C3C61)C42)C(=O)N[C@@H](CO)C(N)=O` (some centres unmarked) [PCU-lactone-CO-AIS], in data set [1], half-maximal inhibition (IC50) was put at 830 nM. This lies in the sub-micromolar range.

By IC50 is commonly meant the concentration needed to halve the response being measured.

Values taken from article PMC4387594, “Pentacycloundecane lactam vs lactone norstatine type protease HIV inhibitors: binding energy calculations and DFT study” (Journal of Biomedical Science, 2015).
